The nature of one data set: in vitro. The data set is classed as in vitro ADME. To be noted: human. As for the experimental part: The barrier integrity of the CFBE41o− cell line cultured on the Transwell® supports was determined by both TEER (Srinivasan B et aL, 2015, Journal of Laboratory Automation, 20(2): 107-126) and sodium fluorescein transport (Molenda N et al., 2014, PLOS ONE, 9(6): p. e100621). Due to the variation in TEER measurements, sodium fluorescein transport provided a direct measurement of the tight junctions. On day 7 (4 days after cells are transferred to ALI), cells were incubated basolaterally with 1.7 mL KRB buffer and apically with 520 μL of 10 μg/mL sodium fluorescein (in KRB) with or without 16 mM ethylenediaminetetraacetic acid (EDTA). EDTA disrupts the tight junctions of a cell barrier. At 30-minute intervals, 20 μL samples were taken from the basolateral compartment and replaced with fresh KRB. […] The samples were then measured and compared to a standard curve via fluorescent spectroscopy (Tecan® plate reader, Tecan Deutschland GmbH, Germany) at excitation and emission wavelengths of […], respectively. […]
(§1) After TOB treatments were nebulised, at 5, 15, 30, 60, 120, 240 and 1440 minutes, 100 μL sample was taken from the basolateral compartment and replaced with fresh MEM media. The sample was then filtered through 4 mm Millex® syringe filters before LC-MS/MS analysis, as described above, to quantify the transport of TOB.

A short description of data set [1]: Tobramycin transport across CFBE41o− infected with PAO1 biofilm. The note with it: human; nebulised; biofilm and epithelium monolayer; read-out: Papp of TOB. The format is in vitro ADME, human. As for the experimental part: (§2) To assess the activity and toxicity or formulations, the CFBE41o− cell line was seeded on Transwell® inserts (0.05×10^6) at the liquid-liquid interface (500 μL apical and 1500 μL basolateral) on day 0. On day 3, the apical side media was removed, and the basolateral side was replaced with 500 μL of media. On day 7, the transepithelial electrical resistance (TEER) was measured through adding 500 μL to the apical chamber of one well and replacing the basolateral side with 1500 μL. The transferred biofilm model, described above, was employed to transfer the PAO1 biofilm on top of the CFBE41o− cell line in the apical compartment of the Transwells® on day 7. After 1 h incubation, the supernatant was removed as the biofilm has settled onto the cells.
(§3) Using the Aerogen® Pro (vibrating mesh nebuliser) and nebulisation chamber, the treatments were then nebulised on top of the biofilm and CFBE41o− cell layer. […]
as §1

For data set [2], the system named is CFBE41o− infected with PAO1 biofilm. Described as above. The data set is classed as in vitro ADME, human. The note with it: peak at 2.5 h after nebulisation. The protocol:
as §2, §3, §1

Another data set has as its system P. aeruginosa Xen41. Briefly: Chronic full-thickness wound infection model: bacterial load. The data set is classed as in vivo, Balb/c mice. As for the experimental part: Immediately after wounding, group 1 was inoculated with 10^7 CFU of bioluminescent P. aeruginosa strain (Xen41, PerkinElmer, Waltham, MA, USA) in 10 μL of 0.9% saline. All other mice were covered with an adhesive dressing (Opsite Flexigrid, Smith & Nephew, London, UK). All mice were given soaked food and free access to water for the study. Postoperative analgesia (0.05 mg/kg buprenorphine) was provided 10 h and 24 h post-surgery via subcutaneous administration. After inoculation, mice were imaged using IVIS Spectrum Live Animal Imaging System (PerkinElmer, Waltham, MA, USA) and then daily until sacrifice to quantity radiance (photons/s) of the bioluminescent bacteria in the wound and correlate to the infection load, as previously described (Abbott C A et al., 2013, Contributors, in Handbook of Proteolytic Enzymes, N. D. Rawlings and G. Salvesen, Editors. 2013, Academic Press. p. xxxv-xlviii). Using built-in Living Image R software, regions of interest (ROI) were selected surrounding the wound to quantify the total photon emission following established protocols (Haidari, H., et al., 2021, Acta Biomaterialia, 128: 420-434; Kopecki, Z., et al., 2009, Journal of Investigative Dermatology, 129(8): 2031-2045).
After the pilot, it was determined that a 6 mm wound+10^6 CFU P. aeruginosa infection was the appropriate model to proceed with. […]

For data set [3] the following is noted: aerosolised, CF patients; cited from earlier work.

Molecules are shown by their SMILES.

On to `NC[C@H]1O[C@H](O[C@H]2[C@H](O)[C@@H](O[C@H]3O[C@H](CO)[C@@H](O)[C@H](N)[C@H]3O)[C@H](N)C[C@@H]2N)[C@H](N)C[C@@H]1O` [unformulated TOB, tobramycin], for which the Papp (usually a coefficient for how fast a substance crosses the barrier) at 1440 min in the data set “in vitro” was 0.81 ×10⁻⁶ cm/s. The Papp at 1440 min, 3.32 mg/mL in data set [1] was 1.91 ×10⁻⁶ cm/s. Moreover, the “TOB reaching the basolateral compartment” value in data set [2] was determined as 15.8%. Also, the “change in infection level compared to saline” value in the data set on P. aeruginosa Xen41 (after each once-daily dose) is recorded as “no statistical change in the infection level”. Further, in the data set with P. aeruginosa Xen41 (day six, after three doses of 15 μg topical), the “P. aeruginosa remaining in excised wounds” value is listed as 5×10^6 CFU. Further, the bioavailability (usually the share of a dose that reaches the circulation, judged against a reference dose that is usually intravenous) in data set [3] is 9.13%.

The record behind these values is patent US12569508B2, “Antimicrobial compositions and methods of use” (priority 2020, dated 2026).
